In patent US12077503B2, “Substituted cyclic amides and their use as herbicides” (FMC CORPORATION, priority 2015, dated 2024):
Like-named read-outs stand apart in the source and are kept apart here.

What was measured:
Assay type in all cases: in vivo
[1] = test system: sedge, umbrella (small-flower umbrella sedge, Cyperus difformis); experiment: Test B flooded paddy test; settings: Cyperus difformis, Flood, 250 g ai/ha; scale of 0 to 100 where 0 is no effect and 100 is complete control; read-out: Sedge, Umbrella plant response rating
Outline: (§1)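 Visual ratings (0 none to 100 complete control) are relative to untreated plants, taken 13–15 d after treatment in a greenhouse. Test material went straight into floodwater standing 3 cm above the soil, kept constant, on plants at the 2-leaf stage.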

[2] = test system: rice (Oryra sativa); experiment: Test B flooded paddy test; settings: Oryza sativa, Flood, 250 g ai/ha; scale of 0 to 100 where 0 is no effect and 100 is complete control; read-out: Rice plant response rating
Outline: as §1

[3] = test system: barnyardgrass (Echinochloa crus-galli); experiment: Test B flooded paddy test; settings: Echinochloa crus-galli, Flood, 250 g ai/ha; scale of 0 to 100 where 0 is no effect and 100 is complete control; read-out: Barnyardgrass plant response rating
Outline: as §1

[4] = test system: ducksalad (Heteranthera limosa); experiment: Test B flooded paddy test; settings: Heteranthera limosa, Flood, 250 g ai/ha; scale of 0 to 100 where 0 is no effect and 100 is complete control; read-out: Ducksalad plant response rating
Outline: as §1

[5] = test system: Galium (catchweed bedstraw, Galium aparine); experiment: Test A postemergence; settings: Galium, post-emergence, 240 h, 125 g ai/ha, postemergence; visual injury after approximately 10 d; 0 to 100 scale (0 no effect, 100 complete control); read-out: Plant response rating, Galium
Outline: (§2)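 Visual injury scores from 0, no effect, to 100, complete control, were assigned versus untreated controls roughly 10 d after treatment in the greenhouse. Test chemicals, formulated with surfactant in a non-phytotoxic solvent, were applied to planted seeds as a preemergence soil spray or postemergence to one- to two-leaf plants 2 to 10 cm tall, in loam–sand soil.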

[6] = test system: Kochia (Kochia scoparia); experiment: Test A postemergence; settings: Bassia scoparia, post-emergence, 240 h, 125 g ai/ha, postemergence; visual injury after approximately 10 d; 0 to 100 scale (0 no effect, 100 complete control); read-out: Plant response rating, Kochia
Outline: as §2

[7] = test system: corn (Zea mays); experiment: Test A postemergence; settings: Zea mays, post-emergence, 240 h, 125 g ai/ha, postemergence; visual injury after approximately 10 d; 0 to 100 scale (0 no effect, 100 complete control)
Outline: as §2

[8] = test system: pigweed (Amaranthus retroflexus); experiment: Test A postemergence; settings: Amaranthus retroflexus, post-emergence, 240 h, 125 g ai/ha, postemergence; visual injury after approximately 10 d; 0 to 100 scale (0 no effect, 100 complete control); read-out: Plant response rating, Pigweed
Outline: as §2

[9] = test system: ryegrass, Italian (Italian ryegrass, Lolium multiflorum); experiment: Test A preemergence; settings: Lolium multiflorum, pre-emergence, 240 h; for pest or weed control at 125 g/ha: 125 g ai/ha, visual rating after approx. 10 d, 0 to 100 scale where 0 is no effect and 100 is complete control; for pest or weed control at 500 g/ha: 500 g ai/ha
Outline: as §2

[10] = test system: Kochia (Kochia scoparia); experiment: Test A preemergence; settings: Bassia scoparia, pre-emergence, 240 h; for pest or weed control at 125 g/ha: 125 g ai/ha, visual rating after approx. 10 d, 0 to 100 scale where 0 is no effect and 100 is complete control; for pest or weed control at 500 g/ha: 500 g ai/ha
Outline: as §2

[11] = test system: ragweed (common ragweed, Ambrosia elatior); experiment: Test A preemergence; settings: Ambrosia artemisiifolia, pre-emergence, 240 h; for pest or weed control at 125 g/ha: 125 g ai/ha, visual rating after approx. 10 d, 0 to 100 scale where 0 is no effect and 100 is complete control; for pest or weed control at 500 g/ha: 500 g ai/ha
Outline: as §2

[12] = test system: giant foxtail (Setaria faberii); experiment: Test A preemergence; settings: Setaria faberi, pre-emergence, 240 h; for pest or weed control at 125 g/ha: 125 g ai/ha, visual rating after approx. 10 d, 0 to 100 scale where 0 is no effect and 100 is complete control; for pest or weed control at 500 g/ha: 500 g ai/ha
Outline: as §2

[13] = test system: pigweed (Amaranthus retroflexus); experiment: Test A preemergence; settings: Amaranthus retroflexus, pre-emergence, 240 h; for pest or weed control at 125 g/ha: 125 g ai/ha, visual rating after approx. 10 d, 0 to 100 scale where 0 is no effect and 100 is complete control; for pest or weed control at 500 g/ha: 500 g ai/ha
[14] = test system: barnyardgrass (Echinochloa crus-galli); experiment: Test A preemergence; settings: Echinochloa crus-galli, pre-emergence, 240 h; for pest or weed control at 125 g/ha: 125 g ai/ha, visual rating after approx. 10 d, 0 to 100 scale where 0 is no effect and 100 is complete control; for pest or weed control at 500 g/ha: 500 g ai/ha
Outline: as §2

[15] = preemergence, read-out: Plant response rating, Ryegrass, Italian
[16] = preemergence, 0 to 100 scale, 0 = no effect, 100 = complete control, read-out: Plant response rating, Ryegrass, Italian
[17] = preemergence, read-out: Plant response rating, Kochia
[18] = preemergence, 0 to 100 scale, 0 = no effect, 100 = complete control, read-out: Plant response rating, Kochia
[19] = preemergence, read-out: Plant response rating, Ragweed
[20] = preemergence, 0 to 100 scale, 0 = no effect, 100 = complete control, read-out: Plant response rating, Ragweed
[21] = preemergence, read-out: Plant response rating, Foxtail, Giant
[22] = preemergence, 0 to 100 scale, 0 = no effect, 100 = complete control, read-out: Plant response rating, Foxtail, Giant
[23] = preemergence, read-out: Plant response rating, Pigweed
[24] = preemergence, 0 to 100 scale, 0 = no effect, 100 = complete control, read-out: Plant response rating, Pigweed
[25] = preemergence, read-out: Plant response rating, Barnyardgrass
[26] = preemergence, 0 to 100 scale, 0 = no effect, 100 = complete control, read-out: Plant response rating, Barnyardgrass

## Cc1ccc([C@H]2CN(C)C(=O)[C@@H]2C(=O)Nc2ccccc2S(C)(=O)=O)cc1C [Compound 734]
[1]
  pest or weed control at 250 g/ha: 0%
[2]
  pest or weed control at 250 g/ha: 0%
[3]
  pest or weed control at 250 g/ha: 60%
[4]
  pest or weed control at 250 g/ha: 100%
[5]
  pest or weed control at 125 g/ha: 30%
[6]
  pest or weed control at 125 g/ha: 0%
[7]
  Corn plant response rating (crop injury, 0 = no effect, 100 = complete kill) at 125 g/ha: 40%
[8]
  pest or weed control at 125 g/ha: 0%
[9]; [15]
  pest or weed control at 125 g/ha: 40%
[9]; [16]
  pest or weed control at 500 g/ha: 90%
[10]; [17]
  pest or weed control at 125 g/ha: 20%
[10]; [18]
  pest or weed control at 500 g/ha: 90%
[11]; [19]
  pest or weed control at 125 g/ha: 20%
[11]; [20]
  pest or weed control at 500 g/ha: 50%
[12]; [21]
  pest or weed control at 125 g/ha: 90%
[12]; [22]
  pest or weed control at 500 g/ha: 100%
[13]; [23]
  pest or weed control at 125 g/ha: 20%
[13]; [24]
  pest or weed control at 500 g/ha: 80%
[14]; [25]
  pest or weed control at 125 g/ha: 90%
[14]; [26]
  pest or weed control at 500 g/ha: 100%

## O=C1NC[C@H](c2ccc3c(c2)CCO3)[C@H]1C(=O)Nc1ccccc1F [Compound 786]
[1]
  pest or weed control at 250 g/ha: 40%
[2]
  pest or weed control at 250 g/ha: 0%
[3]
  pest or weed control at 250 g/ha: 0%
[4]
  pest or weed control at 250 g/ha: 70%
[5]
  pest or weed control at 125 g/ha: 10%
[6]
  pest or weed control at 125 g/ha: 0%
[7]
  Corn plant response rating (crop injury, 0 = no effect, 100 = complete kill) at 125 g/ha: 0%
[8]
  pest or weed control at 125 g/ha: 0%
[9]; [15]
  pest or weed control at 125 g/ha: 0%
[9]; Preemergence, visual injury vs untreated controls after approximately 10 d, read-out: Ryegrass, Italian plant response rating (0 to 100 scale where 0 is no effect and 100 is complete control)
  pest or weed control at 500 g/ha: 0%
[10]; [17]
  pest or weed control at 125 g/ha: 0%
[10]; Preemergence, visual injury vs untreated controls after approximately 10 d, read-out: Kochia plant response rating (0 to 100 scale where 0 is no effect and 100 is complete control)
  pest or weed control at 500 g/ha: 0%
[11]; [19]
  pest or weed control at 125 g/ha: 0%
[11]; Preemergence, visual injury vs untreated controls after approximately 10 d, read-out: Ragweed plant response rating (0 to 100 scale where 0 is no effect and 100 is complete control)
  pest or weed control at 500 g/ha: 0%
[12]; [21]
  pest or weed control at 125 g/ha: 90%
[12]; Preemergence, visual injury vs untreated controls after approximately 10 d, read-out: Foxtail, Giant plant response rating (0 to 100 scale where 0 is no effect and 100 is complete control)
  pest or weed control at 500 g/ha: 90%
[13]; [23]
  pest or weed control at 125 g/ha: 0%
[13]; Preemergence, visual injury vs untreated controls after approximately 10 d, read-out: Pigweed plant response rating (0 to 100 scale where 0 is no effect and 100 is complete control)
  pest or weed control at 500 g/ha: 0%
[14]; [25]
  pest or weed control at 125 g/ha: 80%
[14]; Preemergence, visual injury vs untreated controls after approximately 10 d, read-out: Barnyardgrass plant response rating (0 to 100 scale where 0 is no effect and 100 is complete control)
  pest or weed control at 500 g/ha: 90%

## Cc1ccc([C@H]2CN(C)C(=O)[C@@H]2C(=O)Nc2cccc(F)c2F)c(F)c1 [Compound 730]
[1]
  pest or weed control at 250 g/ha: 0%
[2]
  pest or weed control at 250 g/ha: 0%
[3]
  pest or weed control at 250 g/ha: 75%
[4]
  pest or weed control at 250 g/ha: 95%
[5]
  pest or weed control at 125 g/ha: 50%
[6]
  pest or weed control at 125 g/ha: 70%
[7]
  Corn plant response rating (crop injury, 0 = no effect, 100 = complete kill) at 125 g/ha: 20%
[8]
  pest or weed control at 125 g/ha: 20%
[9]; [15]
  pest or weed control at 125 g/ha: 20%
[9]; [16]
  pest or weed control at 500 g/ha: 70%
[10]; [17]
  pest or weed control at 125 g/ha: 70%
[10]; [18]
  pest or weed control at 500 g/ha: 80%
[11]; [19]
  pest or weed control at 125 g/ha: 50%
[11]; [20]
  pest or weed control at 500 g/ha: 60%
[12]; [21]
  pest or weed control at 125 g/ha: 90%
[12]; [22]
  pest or weed control at 500 g/ha: 100%
[13]; [23]
  pest or weed control at 125 g/ha: 30%
[13]; [24]
  pest or weed control at 500 g/ha: 50%
[14]; [25]
  pest or weed control at 125 g/ha: 90%
[14]; [26]
  pest or weed control at 500 g/ha: 100%
